Assay results: patent publication EP4682145A1, “BENZOHETEROCYCLIC COMPOUND, AND PREPARATION METHOD THEREFOR AND USE THEREOF” (Cascade Pharmaceuticals, Inc., priority 2023, dated 2024)

Target: T1, human FFAR1 (GPR40) (Homo sapiens, UniProt O14842)
T1 construct: Flag; expressed in transfected cells; host or cells: HEK293T
Test: NFAT-RE-based reporter gene activity assay (Dual-Glo luciferase) for GPR40 agonistic activity in co-transfected HEK293T cells
Assay type: cell-based
Conditions: 4-hour treatment; for Efficacy (%): class symbols
In short: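 Agonism read as NFAT-RE-driven firefly luciferase over Renilla control (Dual-Glo) after 4 h compound exposure, top concentration 1 µM, 10 half-log steps.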

T1 sequence (O14842 whole entry): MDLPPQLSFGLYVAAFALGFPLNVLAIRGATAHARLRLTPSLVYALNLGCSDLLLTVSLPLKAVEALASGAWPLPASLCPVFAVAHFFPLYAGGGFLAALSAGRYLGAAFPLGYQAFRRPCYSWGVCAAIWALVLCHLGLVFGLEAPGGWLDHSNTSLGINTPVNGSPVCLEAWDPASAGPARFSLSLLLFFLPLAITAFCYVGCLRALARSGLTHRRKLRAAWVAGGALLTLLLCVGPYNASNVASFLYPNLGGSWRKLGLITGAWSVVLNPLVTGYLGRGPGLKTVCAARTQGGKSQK

SMILES | EC50 [nM] | Efficacy (%)
O=C(O)C[C@H](c1ccc2c(C(=O)Nc3cc(C(F)(F)F)ccc3Cl)c(C3CCN(c4ccc5c(c4)OCO5)CC3)oc2c1)C1CC1 [Compound 335] | ≤ 10 | †† (150 ≥ Efficacy (%) > 100)
CCc1ccc(Cl)c(NC(=O)c2c(C3CCN(c4ccc5c(c4)OCO5)CC3)oc3cc([C@@H](CC(=O)O)C4CC4)ccc23)c1 [Compound 337] | ≤ 10 | †† (150 ≥ Efficacy (%) > 100)
COc1ccc(F)c(N2CCC(c3oc4cc([C@@H](CC(=O)O)C5CC5)ccc4c3C(=O)Nc3cc(Cl)ccc3F)CC2)c1 [Compound 338] | 10 to 100 | †† (150 ≥ Efficacy (%) > 100)
CCc1ccc(Cl)c(NC(=O)c2c(C3CCN(c4cc(OC)ccc4F)CC3)oc3cc([C@@H](CC(=O)O)C4CC4)ccc23)c1 [Compound 339] | ≤ 10 | †† (150 ≥ Efficacy (%) > 100)
COc1ccc(F)c(N2CCC(c3oc4cc([C@@H](CC(=O)O)C5CC5)ccc4c3C(=O)Nc3cc(C(F)(F)F)ccc3Cl)CC2)c1 [Compound 340] | < 10 | ††† (Efficacy (%) > 150)
COc1ccc(F)c(N2CCC(c3oc4cc([C@@H](CC(=O)O)C5CC5)ccc4c3C(=O)Nc3cc(F)ccc3Cl)CC2)c1 [Compound 341] | ≤ 10 | †† (150 ≥ Efficacy (%) > 100)
COc1ccc(F)c(N2CCC(c3oc4cc([C@@H](CC(=O)O)C5CC5)ccc4c3C(=O)Nc3cc(F)ccc3Br)CC2)c1 [Compound 342] | ≤ 10 | †† (150 ≥ Efficacy (%) > 100)
COc1ccc(F)c(N2CCC(c3oc4cc([C@@H](CC(=O)O)C5CC5)ccc4c3C(=O)Nc3cc(C)ccc3Cl)CC2)c1 [Compound 343] | ≤ 10 | ††† (Efficacy (%) > 150)
COc1cccc(N2CCC(c3oc4cc(C(CC(=O)O)C5CC5)ccc4c3C(=O)NC3CCCCC3)CC2)c1 (stereo not drawn) [Compound 344] | 100 to 500 | †† (150 ≥ Efficacy (%) > 100)
COc1cccc(N2CCC(c3oc4cc(C(CC(=O)O)C5CC5)ccc4c3C(=O)NC34CC(C3)C4)CC2)c1 (stereo not drawn) [Compound 345] | 100 to 500 | †† (150 ≥ Efficacy (%) > 100)
COc1cccc(N2CCC(c3oc4cc(C(CC(=O)O)C5CC5)ccc4c3C(=O)NC3CCC(C)(C)CC3)CC2)c1 (stereo not drawn) [Compound 348] | 100 to 500 | †† (150 ≥ Efficacy (%) > 100)
COc1cccc(N2CCC(c3oc4cc(C(CC(=O)O)C5CC5)ccc4c3C(=O)NC34CC5CC(CC(C5)C3)C4)CC2)c1 (stereo not drawn) [Compound 349] | 100 to 500 | †† (150 ≥ Efficacy (%) > 100)
COc1cccc(N2CCC(c3oc4cc(C(CC(=O)O)C5CC5)ccc4c3C(=O)NC34CC5CC(C)(CC(C)(C5)C3)C4)CC2)c1 (stereo not drawn) [Compound 351] | 10 to 100 | †† (150 ≥ Efficacy (%) > 100)
COc1cccc(N2CCC(c3oc4cc(C(CC(=O)O)C5CC5)ccc4c3C(=O)NC3C4CC5CC(C4)CC3C5)CC2)c1 (stereo not drawn) [Compound 352] | 10 to 100 | †† (150 ≥ Efficacy (%) > 100)
COc1cccc(N2CCC(c3oc4cc(C(CC(=O)O)C5CC5)ccc4c3C(=O)NC34CC5CC(CC(C)(C5)C3)C4)CC2)c1 (stereo not drawn) [Compound 353] | 100 to 500 | ††† (Efficacy (%) > 150)
COc1cccc(N2CCC(c3oc4cc([C@@H](CC(=O)O)C5CC5)ccc4c3C(=O)NC34CC5CC(C)(CC(C)(C5)C3)C4)CC2)c1 [Compound 354] | 100 to 500 | †† (150 ≥ Efficacy (%) > 100)
COc1cccc(N2CCC(c3oc4cc(C(CC(=O)O)C5CC5)ccc4c3C(=O)NCc3ccccc3)CC2)c1 (stereo not drawn) [Compound 355] | 100 to 500 | †† (150 ≥ Efficacy (%) > 100)
COc1cccc(N2CCC(c3oc4cc(C(CC(=O)O)C5CC5)ccc4c3C(=O)N3CCCC3)CC2)c1 (stereo not drawn) [Compound 358] | 100 to 500 | † (100 ≥ Efficacy (%) > 50)
COc1cccc(N2CCC(c3oc4cc(C(CC(=O)O)C5CC5)ccc4c3C(=O)N3CCCC3C)CC2)c1 (stereo not drawn) [Compound 359] | 100 to 500 | † (100 ≥ Efficacy (%) > 50)
COc1cccc(N2CCC(c3oc4cc(C(CC(=O)O)C5CC5)ccc4c3C(=O)N3CC4(CCC4)C3)CC2)c1 (stereo not drawn) [Compound 360] | > 500 | ††† (Efficacy (%) > 150)
COc1cccc(N2CCC(c3oc4cc([C@@H](CC(=O)O)C5CC5)ccc4c3/C=C/C(C)(C)C)CC2)c1 [Compound 361] | 10 to 100 | †† (150 ≥ Efficacy (%) > 100)
COc1cccc(N2CCC(c3oc4cc(C(CC(=O)O)C5CC5)ccc4c3/C=C/C3CC3)CC2)c1 (stereo not drawn) [Compound 364] | 100 to 500 | †† (150 ≥ Efficacy (%) > 100)
COc1ccc(F)c(N2CCC(c3oc4cc(C(CC(=O)O)C5CC5)ccc4c3/C=C/C(C)(C)C)CC2)c1 (stereo not drawn) [Compound 366] | 10 to 100 | †† (150 ≥ Efficacy (%) > 100)
COc1ccc(F)c(N2CCC(c3oc4cc([C@@H](CC(=O)O)C5CC5)ccc4c3/C=C/C(C)(C)C)CC2)c1 [Compound 367] | ≤ 10 | †† (150 ≥ Efficacy (%) > 100)

SMILES | EC50 [nM] | Efficacy (%)
COc1ccc(F)c(N2CCC(c3oc4cc(C(CC(=O)O)C5CC5)ccc4c3/C=C/C(C)(C)O)CC2)c1 (stereo not drawn) [Compound 368] | 100 to 500 | ††† (Efficacy (%) > 150)
COc1ccc(F)c(N2CCC(c3oc4cc([C@@H](CC(=O)O)C5CC5)ccc4c3/C=C/C(C)(C)O)CC2)c1 [Compound 369] | 100 to 500 | † (100 ≥ Efficacy (%) > 50)
COc1ccc(F)c(N2CCC(c3oc4cc(C(CC(=O)O)C5CC5)ccc4c3C=C(C)C)CC2)c1 (stereo not drawn) [Compound 370] | 100 to 500 | †† (150 ≥ Efficacy (%) > 100)
COc1ccc(F)c(N2CCC(c3oc4cc(C(CC(=O)O)C5CC5)ccc4c3C/C=C/C(C)C)CC2)c1 (stereo not drawn) [Compound 371] | 100 to 500 | †† (150 ≥ Efficacy (%) > 100)
COc1ccc(F)c(N2CCC(c3oc4cc([C@@H](CC(=O)O)C5CC5)ccc4c3CC=C(C)C)CC2)c1 [Compound 372] | 100 to 500 | †† (150 ≥ Efficacy (%) > 100)
COc1ccc(F)c(N2CCC(c3oc4cc([C@@H](CC(=O)O)C5CC5)ccc4c3C/C=C/C3CC3)CC2)c1 [Compound 373] | 10 to 100 | †† (150 ≥ Efficacy (%) > 100)
COc1cccc(N2CCC(c3oc4cc([C@@H](CC(=O)O)C5CC5)ccc4c3CC=C(C)C)CC2)c1 [Compound 374] | 10 to 100 | †† (150 ≥ Efficacy (%) > 100)
COc1cccc(N2CCC(c3oc4cc([C@@H](CC(=O)O)C5CC5)ccc4c3C/C=C/C3CC3)CC2)c1 [Compound 375] | 100 to 500 | †† (150 ≥ Efficacy (%) > 100)
CC(C)=CCc1c(C2CCN(c3ccc4c(c3)OCO4)CC2)oc2cc([C@@H](CC(=O)O)C3CC3)ccc12 [Compound 376] | 10 to 100 | †† (150 ≥ Efficacy (%) > 100)
COc1cccc(N2CCC(c3oc4cc(C(CC(=O)O)C5CC5)ccc4c3C(=CCC(C)C)c3ccccc3)CC2)c1 (stereo not drawn) [Compound 377] | 10 to 100 | †† (150 ≥ Efficacy (%) > 100)
COc1ccc(F)c(N2CCC(c3oc4cc(C(CC(=O)O)C5CC5)ccc4c3C3=CCCCC3)CC2)c1 (stereo not drawn) [Compound 379] | 100 to 500 | †† (150 ≥ Efficacy (%) > 100)
COc1ccc(F)c(N2CCC(c3oc4cc(C(CC(=O)O)C5CC5)ccc4c3C3=CCC(C(C)(C)C)CC3)CC2)c1 (stereo not drawn) [Compound 380] | > 500 | †† (150 ≥ Efficacy (%) > 100)
COc1ccc(F)c(N2CCC(c3oc4cc(C(CC(=O)O)C5CC5)ccc4c3CC3=CCCC3)CC2)c1 (stereo not drawn) [Compound 383] | 100 to 500 | ††† (Efficacy (%) > 150)
CCCCC(C)c1c(C2CCN(c3cccc(OC)c3)CC2)oc2cc([C@@H](CC(=O)O)C3CC3)ccc12 (stereo partly drawn) [Compound 384] | 100 to 500 | †† (150 ≥ Efficacy (%) > 100)
COc1cccc(N2CCC(c3oc4cc([C@@H](CC(=O)O)C5CC5)ccc4c3C(C)CCC(C)C)CC2)c1 (stereo partly drawn) [Compound 385] | 10 to 100 | †† (150 ≥ Efficacy (%) > 100)
CCCCC(c1ccccc1)c1c(C2CCN(c3cccc(OC)c3)CC2)oc2cc([C@@H](CC(=O)O)C3CC3)ccc12 (stereo partly drawn) [Compound 386] | 10 to 100 | †† (150 ≥ Efficacy (%) > 100)
COc1cccc(N2CCC(c3oc4cc([C@@H](CC(=O)O)C5CC5)ccc4c3C(CCC(C)C)c3ccccc3)CC2)c1 (stereo partly drawn) [Compound 387] | 10 to 100 | †† (150 ≥ Efficacy (%) > 100)
COc1ccc(F)c(N2CCC(c3oc4cc(C(CC(=O)O)C5CC5)ccc4c3CCC(C)(C)C)CC2)c1 (stereo not drawn) [Compound 388] | 100 to 500 | †† (150 ≥ Efficacy (%) > 100)
COc1ccc(F)c(N2CCC(c3oc4cc([C@@H](CC(=O)O)C5CC5)ccc4c3CCC(C)(C)C)CC2)c1 [Compound 389] | 100 to 500 | †† (150 ≥ Efficacy (%) > 100)
COc1ccc(F)c(N2CCC(c3oc4cc(C(CC(=O)O)C5CC5)ccc4c3CCC(C)(C)O)CC2)c1 (stereo not drawn) [Compound 390] | 100 to 500 | †† (150 ≥ Efficacy (%) > 100)
COc1ccc(F)c(N2CCC(c3oc4cc([C@@H](CC(=O)O)C5CC5)ccc4c3CCCC3CC3)CC2)c1 [Compound 391] | 100 to 500 | †† (150 ≥ Efficacy (%) > 100)
COc1ccc(F)c(N2CCC(c3oc4cc(C(CC(=O)O)C5CC5)ccc4c3CCOC(C)C)CC2)c1 (stereo not drawn) [Compound 393] | 100 to 500 | †† (150 ≥ Efficacy (%) > 100)
COc1ccc(F)c(N2CCC(c3oc4cc(C(CC(=O)O)C5CC5)ccc4c3CC(C)OC)CC2)c1 (stereo not drawn) [Compound 394] | > 500 | †† (150 ≥ Efficacy (%) > 100)
COc1ccc(F)c(N2CCC(c3oc4cc(C(CC(=O)O)C5CC5)ccc4c3CC(C)=O)CC2)c1 (stereo not drawn) [Compound 395] | 100 to 500 | † (100 ≥ Efficacy (%) > 50)
